Measurements as given in patent US9133505B2 (priority 2010, dated 2015).
Several values for one entry are separate records, joined by “and”; a condition that tells them apart may be missing. Equal entries are not always repeated. Where two headings read alike, the source gives them in different places.

Assays:
[1] = system: Pig-A mutant phenotype RBCs and RETs; test: Pig-A mutation assay, technical replicates (Example 1): flow cytometric scoring of CD59-negative RBCs/RETs before and after immunomagnetic separation; conditions: 60 mg/kg/day oral gavage days 1-3, blood day 29
[2] = Mortality in 28-day 1,3-PS study; type: in vivo, Sprague Dawley rat; conditions: 50 mg/kg/day oral gavage, group of six male rats
Method: Groups consisting of six male Sprague Dawley rats (7-8 weeks old) were treated on twenty-eight consecutive days (i.e., days 1 through 28) with either water (vehicle), 12.5 mg 1,3-PS per kilogram body weight per day, 25 mg 1,3-PS per kilogram body weight per day, or 50 mg 1,3-PS per kilogram body weight per day via oral gavage. […] Tail vein blood specimens were collected on day −1 (i.e., one day before the start of treatment), and again on days 15, 29, and 42.

[3] = system: Pig-A mutant phenotype RBCs and RETs; test: Pig-A mutation assay, spiking experiment (Example 2); conditions: blood day 35
[4] = system: Pig-A mutant phenotype RBCs and RETs
[5] = system: reticulocytes; test: Percentage of reticulocytes among total erythrocytes (bone marrow toxicity), pre-magnetic field analysis
[6] = calculated from pre- and post-magnetic field ratios, technical replicates, listed as PS
[7] = post-magnetic field, 4 min acquisition, technical replicates, listed as PS
[8] = post-magnetic field, technical replicates, listed as PS
[9] = pre-magnetic field, 3 min acquisition, technical replicates of one rat, listed as PS
[10] = "100" sample: 40 mg/kg/day 1,3-PS days 1-14, from pre- and post-magnetic field ratios (Table VI), listed as 100
[11] = "100" sample: 40 mg/kg/day 1,3-PS days 1-14, post-magnetic field, 4 min, listed as 100
[12] = "100" sample: 40 mg/kg/day 1,3-PS days 1-14, post-magnetic field, listed as 100
[13] = 28 consecutive days oral gavage, 6 male rats per group, maximum observed on d29
[14] = 28 consecutive days oral gavage, 6 male rats per group, maximum observed on d42

Structure (SMILES): O=S1(=O)CCCO1 [1,3-Propane Sultone, 1,3-propane sultone]
- Frequencies of mutant phenotype RBCs and RETs versus vehicle (in words) [1]: clearly led to elevated frequencies of mutant phenotype RBCs and RETs
- Mutant RBCs per 10^6 Total RBCs [1, 6]: 61.1 per 10^6 Total RBCs and 65.7 per 10^6 Total RBCs and 55 per 10^6 Total RBCs
- Mutant RETs per 10^6 Total RETs [1, 6]: 22 per 10^6 Total RETs and 16.6 per 10^6 Total RETs and 17.7 per 10^6 Total RETs
- Mutant NCEs (events counted), POST-Magnetic Field Analyses [1, 7]: 6,466 and 7,590 and 7,054
- Mutant RETs (events counted), POST-Magnetic Field Analyses [1, 7]: 95 and 79 and 94
- Mutant RBC:Bead Ratio, POST-Magnetic Field Analyses [1, 8]: 0.4138 and 0.4132 (2×)
- Mutant RET:Bead Ratio, POST-Magnetic Field Analyses [1, 8]: 0.00599 and 0.00426 and 0.3748
- Mutant NCEs (events counted), PRE-Magnetic Field Analyses [1, 9]: 83 and 75 and 64
- Mutant RETs (events counted), PRE-Magnetic Field Analyses [1, 9]: 1 (2×) and 2
- Mortality [2]: one rat in the high dose group died on day 11
- Mutant RBCs per 10^6 Total RBCs [3, 10]: 30 per 10^6 Total RBCs and 34.1 per 10^6 Total RBCs
- Mutant RETs per 10^6 Total RETs [3, 10]: 25.2 per 10^6 Total RETs and 31.2 per 10^6 Total RETs
- Mutant RBCs per 10^6 Total RBCs (Post-Column) ([3]; "100" sample: 40 mg/kg/day 1,3-PS days 1-14, post-column, avg 112,632,575 RBCs interrogated per sample, listed as 100): 30 per 10^6 Total RBCs and 34.1 per 10^6 Total RBCs
- Mutant NCEs (events counted), POST-Magnetic Field Analyses [3, 11]: 3,304 and 3,192
- Mutant RETs (events counted), POST-Magnetic Field Analyses [3, 11]: 173 and 182
- Mutant RBC:Bead Ratio, POST-Magnetic Field Analyses [3, 12]: 0.2402 and 0.2497
- Mutant RET:Bead Ratio, POST-Magnetic Field Analyses [3, 12]: 0.01195 and 0.01347
- Mutant RBCs per 10^6 Total RBCs (Pre-Column) ([3]; "100" sample: 40 mg/kg/day 1,3-PS days 1-14, pre-column, avg 1,323,693 RBCs interrogated per sample): 27 per 10^6 Total RBCs
- Mutant NCEs (events counted), PRE-Magnetic Field Analyses ([3]; "100" sample: 40 mg/kg/day 1,3-PS days 1-14, pre-magnetic field, 3 min, listed as 100): 36 and 31
- Mutant RETs (events counted), PRE-Magnetic Field Analyses ([3]; "100" sample: blood of rat given 40 mg/kg/day 1,3-PS oral gavage days 1-14, pre-magnetic field, 3 min): 1
- Mutant RBC frequency versus vehicle-treated rats (in words) ([4]; 12.5, 25, 50 (reduced to 37.5) mg/kg/day for 28 days, Day 15 through Day 42, FIG. 5C): significantly higher than those observed in vehicle-treated rats from Day 15 through Day 42
- Mutant RET frequency versus vehicle controls (in words) ([4]; 12.5, 25, 50 (reduced to 37.5) mg/kg/day for 28 days, days 15, 29, 42, FIG. 5B, Dunnett's t-test p<0.05): each dose group was significantly elevated relative to vehicle controls at every time point studied
- Maximum Avg. Mutant Cell Freq., Mutant RETs [4, 13]: 106 Mutant RETs (d29); × 10^−6
- Maximum Avg. Mutant Cell Freq., Mutant RBCs [4, 14]: 72 Mutant RBCs (d42) × 10^−6
- % RET ([5]; 60 mg/kg/day oral gavage days 1-3, blood day 29, technical replicates, listed as PS): 4.02% and 4.08% (2×)
- % RET versus vehicle (in words) ([5]; 12.5, 25, 50 (reduced to 37.5) mg/kg/day for 28 days, Day 15, FIG. 5A): reduced in a dose-dependent manner
- % RET ([5]; "100" sample: 40 mg/kg/day 1,3-PS oral gavage days 1-14, blood day 35, listed as 100): 5.92% and 5.9%

Structure (SMILES): CC(=O)Nc1ccc2c(c1)Cc1ccccc1-2 [2-Acetylaminofluorene]
- Maximum Avg. Mutant Cell Freq., Mutant RBCs [4, 13]: 58 Mutant RBCs (d29) × 10^−6
- Maximum Avg. Mutant Cell Freq., Mutant RETs [4, 14]: 50 Mutant RETs (d42); × 10^−6

Structure (SMILES): Cn1cnc([N+](=O)[O-])c1Sc1ncnc2nc[nH]c12 [Azathioprine]
- Maximum Avg. Mutant Cell Freq., Mutant RETs ([4]; male, Sprague Dawley, rat, in vivo, po, 29 day): 13 Mutant RETs (d29); × 10^−6
- Maximum Avg. Mutant Cell Freq., Mutant RBCs ([4]; male, Sprague Dawley, rat, in vivo, po, 42 day): 4 Mutant RBCs (d42) × 10^−6

Structure (SMILES): O=C(O)CCCc1ccc(N(CCCl)CCCl)cc1 [Chlorambucil]
- Maximum Avg. Mutant Cell Freq., Mutant RBCs [4, 14]: 21 Mutant RBCs (d42) × 10^−6
- Maximum Avg. Mutant Cell Freq., Mutant RETs [4, 14]: 40 Mutant RETs (d42); × 10^−6

Structure (SMILES): O=P1(N(CCCl)CCCl)NCCCO1 (stereo not drawn) [Cyclophosphamide]
- Maximum Avg. Mutant Cell Freq., Mutant RETs [4, 13]: 5 Mutant RETs (d29); × 10^−6
- Maximum Avg. Mutant Cell Freq., Mutant RBCs [4, 14]: 3 Mutant RBCs (d42) × 10^−6

Structure (SMILES): N[C@@H](Cc1ccc(N(CCCl)CCCl)cc1)C(=O)O [Melphalan]
- Maximum Avg. Mutant Cell Freq., Mutant RBCs [4, 14]: 23 Mutant RBCs (d42) × 10^−6
- Maximum Avg. Mutant Cell Freq., Mutant RETs [4, 14]: 33 Mutant RETs (d42); × 10^−6

Structure (SMILES): S=P(N1CC1)(N1CC1)N1CC1 [Thiotepa]
- Maximum Avg. Mutant Cell Freq., Mutant RETs [4, 13]: 79 Mutant RETs (d29); × 10^−6
- Maximum Avg. Mutant Cell Freq., Mutant RBCs [4, 14]: 69 Mutant RBCs (d42) × 10^−6
